Measured values: BindingDB's records for doi:10.1016/S0960-894X(97)00161-3 (1997)

Assays:
[1] = Compound was tested for inhibition against Creatine kinase (CK)
[2] = Compound was tested for inhibition against Creatine kinase(CK)

SMILES | Ki [1] [mM] | Ki [2] [mM]
CN(CC(=O)O)C(=N)CP(=O)(O)O [Phosphocreatine analogue] | 1.4 | 
N=C(CP(=O)(O)O)NCC(=O)O [Phosphocreatine analogue] |  | 5.7
N=C(CP(=O)(O)O)NCCC(=O)O [Phosphocreatine analogue] | 37 | 
